We go through three compounds from ChEMBL document CHEMBL1129232, “Synthesis and anti-HIV activity of dihydroisoxazole 6-chloropurine and adenine” (Bioorg Med Chem Lett, 1996).

Assay [1] concerns CCRF-CEM. Kind of assay: Compound was evaluated for cytotoxicity against CEM cells. Type of assay: functional, cell-based, Homo sapiens.
Assay [2] can be described thus: Median effective dose required for anti HIV-1 activity in PBM cells(Human lymphocytes). As to conditions: PBMC. Type of assay: functional, cell-based.
Assay [3] concerns Vero. In words: Compound was evaluated for cytotoxicity against Vero cells. Conditions: Chlorocebus sabaeus. It counts as functional, cell-based.
A short description of assay [4]: Compound was evaluated for cytotoxicity against human lymphocytes (PBM cells). Type of assay: functional, cell-based. Conditions: PBMC.

A word on the IC50: it is the concentration at which inhibition is half-maximal. High values mean lower potency, low ones higher potency. Broadly, the EC50 is the midpoint of the concentration-response curve. A lower EC50 goes with higher potency in that assay. With `OCC1=NOC(n2cnc3c(Cl)ncnc32)C1` (stereo unspecified), the IC50 in assay [1] (Homo sapiens, CCRF-CEM) is 35.2 µM; in assay [3] it was > 100 µM; in assay [4] it was 73.5 µM. The same compound registered an EC50 in assay [2] of 34.6 µM.
On the same counts, the results for `Nc1ncnc2c1ncn2C1CC(CO)=NO1` (stereo unspecified) are > 100 µM, > 100 µM, > 100 µM and 54.8 µM.
For the compound `Cc1cn([C@H]2C[C@H](N=[N+]=[N-])[C@@H](CO)O2)c(=O)[nH]c1=O` [ZIDOVUDINE], the figures for the IC50 in assay [1] (ccrf-cem) and in assay [4] were 14 µM and > 100 µM, respectively. For the same compound, in assay [2], the EC50 was found to be 0.004 µM.
